Results published in paper PMC10761119, “Phosphorylation-state dependent intraneuronal sorting of Aβ differentially impairs autophagy and the endo-lysosomal system” (Autophagy, 2023).

Test system: primary cortical neurons
Assay: Lysosome enrichment, immunoisolation of LAMP2- or LC3-positive vesicles and Aβ immunoprecipitation with western immunoblotting
Type: cell-based, mouse
Settings: Aβ 500 nM, 4 h; for Intraneuronal accumulation of Aβ peptides by immunoprecipitation of total Aβ (rank order): IP from PNS with 4G8; for Aβ levels in the lysosomal/late endosomal enriched fraction (16,000 g pellet): immunoblot, two independent experiments; for Aβ in LAMP2-immunoisolated lysosomes: compared to p-Ser8Aβ
Method: Cells after respective washing steps were collected by scraping and homogenized in isotonic buffer (10 mM Tris-HCl, pH 7.4, 1 mM MgCl2, 0.1 mM EGTA, 0.25 M sucrose) containing protease and phosphatase inhibitors, by repeated suspension through a 23 G × 1” needle. Cell homogenate was centrifuged at 2,000 g for 5 min. Pellet (nuclear material) was discarded. The post-nuclear supernatant was centrifuged at 16,100 g for 15 min. Pellet comprised of lysosome enriched material and the supernatant was used as the crude lysosome depleted material. Pellet was resuspended in STEN-lysis buffer and the lysosome enriched fraction was the supernatant collected after centrifugation at 16,100 g for 15 min. Supernatant was further centrifuged at 16,100 g for 60 min. The resultant pellet contained lysosome depleted material and supernatant was crude cytosolic material. The pellet was re-homogenized in STEN-lysis buffer and the supernatant was the lysosome depleted fraction collected post-centrifugation at 16,100 g for 15 min.
Cells after respective washing steps were collected by scraping and homogenized in either isotonic buffer or hypotonic D buffer containing protease and phosphatase inhibitors by repeated suspension through a 23 G × 1” needle. Cell homogenate was centrifuged at 2,000 g for 5 min and the nuclear material (pellet) was discarded. The post-nuclear supernatant was then used for IP experiments. Sepharose G beads (ThermoFisher Scientific, 101242) were incubated with PNS material at RT for 1 h, beads were further pelleted down and boiled in 1% SDS in 50 mM Tris-HCl, pH 7.6 along with sample buffer, used as bead control. Supernatant exposed to beads only were devoid of nonspecific binding substrates and was used further as loading control. New set of beads were precoated with respective primary antibodies for 1 h and then incubated with the PNS solutions overnight at 4°C. Beads were pelleted down and boiled with 1% SDS in 50 mM Tris-HCl along with sample buffer as the IP eluate.
For different cellular fractions prepared as described earlier, the protein content was estimated using the standard Pierce™ BCA protein assay kit (ThermoFisher Scientific, 23225). For direct comparison between the samples, equal amount of protein was loaded. Samples were dissolved in Laemmli buffer and were boiled at 95°C for 5 min. They were loaded on a precast 4–12% NuPage® Bis-Tris gels (Life technologies, NP033–5/6, WG140–2/3). Gels and prestained protein molecular weight markers were purchased from Life technologies. The separated proteins were electro-transferred onto a 0.2-μm nitrocellulose (NT) membrane (Amersham, 1060001) for 1 h 45 min. After blotting, the NT membranes were boiled in PBS for 10 min. Ponceau staining was done to monitor protein loading of samples. The blots were then incubated in 5% skim milk in TBS-T (TBS [50 mM Tris-HCl, pH 7.5, 150 mM NaCl] containing 0.1% Tween 20 [Sigma Aldrich, P1379]) for 1 h at RT. Blots were incubated overnight at 4°C in the primary antibody solution (respective dilutions in TBS-T, Table 1). Blots were washed and incubated with appropriate secondary antibodies conjugated either with HRP or fluorescent dyes for 1 h. Blots were developed either by enhanced chemiluminescence (ECL) or fluorescence imaging. For ECL imaging, blots were incubated with equivalent mixtures of ECL solution A (0.1 M Tris, 0.4 mM coumaric acid, 2.5 mM luminol, pH 8.5) and B (0.1 M Tris, 0.018% H2O2) mixed prior to application on blots. Signals were detected with an ECL imager (Bio-Rad, Germany). For fluorescence detection, blots were imaged on a Li-COR imaging station (Li-COR Biosciences, Germany). Blots were presented as is or with minimal linear contrast enhancement (Figure 5B–D; S1; S3E; S5E, S8E). Quantification of band signals was done using ImageJ – Gel processing module or Image Studio processing software (LiCOR Biosciences, Germany). […]

## amyloid-β phosphorylated at serine residue 8 [p-Ser8Aβ]
  Intraneuronal accumulation of Aβ peptides by immunoprecipitation of total Aβ (rank order): p-Ser8Aβ > p-Ser26Aβ > npAβ
  Aβ levels in the lysosomal/late endosomal enriched fraction (16,000 g pellet): only marginal levels
Western immunoblot 82E1
  Aβ in LC3 immunoisolated vesicles: high levels

## amyloid-β phosphorylated at serine residue 26 [p-Ser26Aβ]
  Intraneuronal accumulation of Aβ peptides by immunoprecipitation of total Aβ (rank order): p-Ser8Aβ > p-Ser26Aβ > npAβ
  Aβ levels in the lysosomal/late endosomal enriched fraction (16,000 g pellet): high levels
Western immunoblot 82E1
  Aβ in LAMP2-immunoisolated lysosomes: strongly enriched

## non-phosphorylated amyloid-β [npAβ, reference compound]
  Intraneuronal accumulation of Aβ peptides by immunoprecipitation of total Aβ (rank order): p-Ser8Aβ > p-Ser26Aβ > npAβ
  Aβ levels in the lysosomal/late endosomal enriched fraction (16,000 g pellet): moderate levels
Western immunoblot 82E1
  Aβ in LAMP2-immunoisolated lysosomes: strongly enriched
